Tests used:
Test in all cases: 33PanQinase panel
Type in all cases: biochemical
PKC-iota = biological target: T1, PKC-iota (Homo sapiens, UniProt P41743); conditions: read-out: Residual Activity (%)
T1 construct: purchased ProQinase
In short: (§1)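 Each reaction mix held 1% DMSO and 1 µM test compound; kinase activity was read radiometrically (33P) and normalised to DMSO control as percent residual activity.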

CSF1-R = biological target: T2, CSF1-R (Homo sapiens, UniProt P07333); conditions: read-out: Residual Activity (%)
T2 construct: purchased ProQinase
In short: as §1

PAK3 = biological target: T3, PAK3 (Homo sapiens, UniProt O75914); conditions: PAK3, 1 µM; read-out: Residual Activity (%)
T3 construct: purchased ProQinase
In short: as §1

JAK1 aa583-1154 wt = biological target: T4, JAK1 aa583-1154 wt (Homo sapiens, UniProt P23458); conditions: read-out: Residual Activity (%)
T4 construct: purchased ProQinase
In short: as §1

CLK3 = biological target: T5, CLK3 (Homo sapiens, UniProt P49761); conditions: CLK3, 1 µM; read-out: Residual Activity (%)
T5 construct: purchased ProQinase
In short: as §1

EPHA4 = biological target: T6, EPHA4 (Homo sapiens, UniProt P54764); conditions: EPHA4, 1 µM; read-out: Residual Activity (%)
T6 construct: purchased ProQinase
In short: as §1

EEF2K = biological target: T7, EEF2K (Homo sapiens, UniProt O00418); conditions: read-out: Residual Activity (%)
T7 construct: purchased ProQinase
T7 sequence (O00418 whole entry): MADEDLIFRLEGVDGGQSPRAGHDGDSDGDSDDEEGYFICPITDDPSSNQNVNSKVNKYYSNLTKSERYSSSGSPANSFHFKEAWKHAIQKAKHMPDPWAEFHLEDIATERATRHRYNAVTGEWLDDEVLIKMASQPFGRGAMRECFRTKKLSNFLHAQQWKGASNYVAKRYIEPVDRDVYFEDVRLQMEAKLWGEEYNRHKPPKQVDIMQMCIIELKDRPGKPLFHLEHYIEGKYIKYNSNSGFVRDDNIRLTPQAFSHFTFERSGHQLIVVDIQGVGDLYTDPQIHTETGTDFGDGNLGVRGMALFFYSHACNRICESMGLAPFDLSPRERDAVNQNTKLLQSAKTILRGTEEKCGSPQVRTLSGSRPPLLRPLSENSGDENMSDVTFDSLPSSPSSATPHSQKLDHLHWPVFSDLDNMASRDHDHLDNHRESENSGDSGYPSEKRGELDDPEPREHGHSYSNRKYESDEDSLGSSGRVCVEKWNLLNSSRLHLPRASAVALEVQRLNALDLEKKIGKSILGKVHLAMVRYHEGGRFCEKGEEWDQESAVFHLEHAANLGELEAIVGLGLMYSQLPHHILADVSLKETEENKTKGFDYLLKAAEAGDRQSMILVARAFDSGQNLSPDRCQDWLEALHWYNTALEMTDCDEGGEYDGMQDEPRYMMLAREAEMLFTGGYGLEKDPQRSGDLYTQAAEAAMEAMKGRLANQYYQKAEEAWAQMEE
In short: as §1

MATK = biological target: T8, MATK (Homo sapiens, UniProt P42679); conditions: read-out: Residual Activity (%)
T8 construct: purchased ProQinase
In short: as §1

RPS6KA2 = biological target: T9, RPS6KA2 (Homo sapiens, UniProt Q15349); conditions: RPS6KA2, 1 µM; read-out: Residual Activity (%)
T9 construct: purchased ProQinase
In short: as §1

MET = biological target: T10, MET (Homo sapiens, UniProt P08581); conditions: read-out: Residual Activity (%)
T10 construct: purchased ProQinase
In short: as §1

CK1-delta = biological target: T11, CK1-delta (Homo sapiens, UniProt P48730); conditions: read-out: Residual Activity (%)
T11 construct: purchased ProQinase
T11 sequence (P48730 whole entry): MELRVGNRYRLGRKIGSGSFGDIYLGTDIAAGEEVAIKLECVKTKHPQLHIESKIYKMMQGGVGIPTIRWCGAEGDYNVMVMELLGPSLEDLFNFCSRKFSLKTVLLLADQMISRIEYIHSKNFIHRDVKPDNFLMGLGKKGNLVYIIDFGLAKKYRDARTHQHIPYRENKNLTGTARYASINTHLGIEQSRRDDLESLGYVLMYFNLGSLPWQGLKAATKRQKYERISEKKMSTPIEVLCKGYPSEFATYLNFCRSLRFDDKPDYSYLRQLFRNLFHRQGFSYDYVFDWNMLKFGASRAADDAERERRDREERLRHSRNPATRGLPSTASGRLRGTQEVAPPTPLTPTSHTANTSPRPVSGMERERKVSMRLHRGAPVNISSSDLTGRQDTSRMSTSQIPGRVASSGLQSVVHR
In short: as §1

ACV-R2B = biological target: T12, ACV-R2B (Homo sapiens, UniProt Q13705); conditions: read-out: Residual Activity (%)
T12 construct: purchased ProQinase
T12 sequence (Q13705 19-512): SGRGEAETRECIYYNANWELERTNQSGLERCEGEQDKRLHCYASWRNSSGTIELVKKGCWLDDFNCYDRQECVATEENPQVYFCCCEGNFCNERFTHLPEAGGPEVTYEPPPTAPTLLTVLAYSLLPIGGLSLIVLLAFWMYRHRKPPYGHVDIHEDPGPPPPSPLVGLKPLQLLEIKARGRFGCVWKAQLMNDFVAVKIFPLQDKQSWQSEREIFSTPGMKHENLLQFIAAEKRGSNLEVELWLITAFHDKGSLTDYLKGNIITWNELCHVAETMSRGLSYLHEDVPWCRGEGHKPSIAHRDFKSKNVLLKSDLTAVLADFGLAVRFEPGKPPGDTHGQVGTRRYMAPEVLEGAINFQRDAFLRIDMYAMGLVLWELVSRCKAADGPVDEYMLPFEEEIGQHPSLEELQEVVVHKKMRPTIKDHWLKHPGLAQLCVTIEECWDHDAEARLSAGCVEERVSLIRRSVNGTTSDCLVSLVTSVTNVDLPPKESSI
In short: as §1

EPHA3 = biological target: T13, EPHA3 (Homo sapiens, UniProt P29320); conditions: EPHA3, 1 µM; read-out: Residual Activity (%)
T13 construct: purchased ProQinase
In short: as §1

LRRK2 = biological target: T14, LRRK2 (Homo sapiens, UniProt Q5S007); conditions: LRRK2, 1 µM; read-out: Residual Activity (%)
T14 construct: purchased ProQinase
In short: as §1

TBK1 = biological target: T15, TBK1 (Homo sapiens, UniProt Q9UHD2); conditions: TBK1, 1 µM; read-out: Residual Activity (%)
T15 construct: purchased ProQinase
In short: as §1

PRK2 = biological target: T16, PRK2 (Homo sapiens, UniProt Q16513); conditions: PRK2, 1 µM; read-out: Residual Activity (%)
T16 construct: purchased ProQinase
In short: as §1

CAMK2D = biological target: T17, CAMK2D (Homo sapiens, UniProt Q13557); conditions: read-out: Residual Activity (%)
T17 construct: purchased ProQinase
T17 sequence (Q13557 whole entry): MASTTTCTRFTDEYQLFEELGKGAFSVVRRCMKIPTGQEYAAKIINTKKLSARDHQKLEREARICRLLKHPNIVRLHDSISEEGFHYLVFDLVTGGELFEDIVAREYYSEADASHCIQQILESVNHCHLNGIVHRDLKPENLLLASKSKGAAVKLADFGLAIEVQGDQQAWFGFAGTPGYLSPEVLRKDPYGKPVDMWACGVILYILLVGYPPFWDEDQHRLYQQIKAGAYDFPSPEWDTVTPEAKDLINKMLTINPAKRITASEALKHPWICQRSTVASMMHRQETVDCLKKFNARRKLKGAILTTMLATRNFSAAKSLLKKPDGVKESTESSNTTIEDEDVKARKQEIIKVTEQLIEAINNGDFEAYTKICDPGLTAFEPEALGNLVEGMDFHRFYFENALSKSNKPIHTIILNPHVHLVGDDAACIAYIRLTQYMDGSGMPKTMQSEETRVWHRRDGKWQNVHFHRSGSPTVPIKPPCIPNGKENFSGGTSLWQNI
In short: as §1

ITK = biological target: T18, ITK (Homo sapiens, UniProt Q08881); conditions: read-out: Residual Activity (%)
T18 construct: purchased ProQinase
T18 sequence (Q08881 whole entry): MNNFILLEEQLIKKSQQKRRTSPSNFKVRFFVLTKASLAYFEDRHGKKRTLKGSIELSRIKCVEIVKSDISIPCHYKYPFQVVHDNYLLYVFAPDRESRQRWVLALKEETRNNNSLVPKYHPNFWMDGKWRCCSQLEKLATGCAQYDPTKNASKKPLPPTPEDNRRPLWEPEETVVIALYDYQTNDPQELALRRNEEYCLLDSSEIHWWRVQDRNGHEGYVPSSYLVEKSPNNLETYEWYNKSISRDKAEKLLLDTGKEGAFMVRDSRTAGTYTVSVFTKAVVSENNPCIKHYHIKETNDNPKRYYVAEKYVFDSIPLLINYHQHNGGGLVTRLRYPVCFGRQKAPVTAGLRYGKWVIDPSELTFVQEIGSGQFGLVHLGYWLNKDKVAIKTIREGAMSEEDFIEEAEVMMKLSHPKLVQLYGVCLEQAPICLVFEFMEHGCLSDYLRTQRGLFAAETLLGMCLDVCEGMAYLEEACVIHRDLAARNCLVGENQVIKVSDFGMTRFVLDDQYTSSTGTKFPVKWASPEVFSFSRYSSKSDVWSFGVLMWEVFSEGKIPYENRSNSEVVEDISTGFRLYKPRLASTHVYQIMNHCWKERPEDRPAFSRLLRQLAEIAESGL
In short: as §1

ERK2 = biological target: T19, ERK2 (Homo sapiens, UniProt P28482); conditions: ERK2, 1 µM; read-out: Residual Activity (%)
T19 construct: purchased ProQinase
T19 sequence (P28482 whole entry): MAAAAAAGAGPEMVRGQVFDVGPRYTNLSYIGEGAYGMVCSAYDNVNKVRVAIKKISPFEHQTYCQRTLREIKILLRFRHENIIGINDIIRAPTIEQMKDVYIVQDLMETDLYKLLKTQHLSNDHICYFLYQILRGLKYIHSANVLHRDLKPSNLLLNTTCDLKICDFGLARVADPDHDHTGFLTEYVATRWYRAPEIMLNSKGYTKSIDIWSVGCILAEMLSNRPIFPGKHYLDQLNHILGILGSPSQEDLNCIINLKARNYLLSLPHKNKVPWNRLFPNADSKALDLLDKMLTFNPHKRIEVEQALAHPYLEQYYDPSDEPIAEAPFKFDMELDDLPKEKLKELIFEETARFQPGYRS
In short: as §1

Aurora-C = biological target: T20, Aurora-C (Homo sapiens, UniProt Q9UQB9); conditions: read-out: Residual Activity (%)
T20 construct: purchased ProQinase
In short: as §1

FES = biological target: T21, FES (Homo sapiens, UniProt P07332); conditions: read-out: Residual Activity (%)
T21 construct: purchased ProQinase
In short: as §1

GRK4 = biological target: T22, GRK4 (Homo sapiens, UniProt P32298); conditions: GRK4, 1 µM; read-out: Residual Activity (%)
T22 construct: purchased ProQinase
In short: as §1

EPHB4 = biological target: T23, EPHB4 (Homo sapiens, UniProt P54760); conditions: EPHB4, 1 µM; read-out: Residual Activity (%)
T23 construct: purchased ProQinase
In short: as §1

PKC-zeta = biological target: T24, PKC-zeta (Homo sapiens, UniProt Q05513); conditions: read-out: Residual Activity (%)
T24 construct: purchased ProQinase
In short: as §1

MEK1 = biological target: T25, MEK1 (Homo sapiens, UniProt Q02750); conditions: MEK1, 1 µM; read-out: Residual Activity (%)
T25 construct: purchased ProQinase
In short: as §1

CLK2 = biological target: T26, CLK2 (Homo sapiens, UniProt P49760); conditions: CLK2, 1 µM; read-out: Residual Activity (%)
T26 construct: purchased ProQinase
In short: as §1

DCAMKL2 = biological target: T27, DCAMKL2 (Homo sapiens, UniProt Q8N568); conditions: DCAMKL2, 1 µM; read-out: Residual Activity (%)
T27 construct: purchased ProQinase
In short: as §1

HIPK3 = biological target: T28, HIPK3 (Homo sapiens, UniProt Q9H422); conditions: HIPK3, 1 µM; read-out: Residual Activity (%)
T28 construct: purchased ProQinase
T28 sequence (Q9H422 whole entry): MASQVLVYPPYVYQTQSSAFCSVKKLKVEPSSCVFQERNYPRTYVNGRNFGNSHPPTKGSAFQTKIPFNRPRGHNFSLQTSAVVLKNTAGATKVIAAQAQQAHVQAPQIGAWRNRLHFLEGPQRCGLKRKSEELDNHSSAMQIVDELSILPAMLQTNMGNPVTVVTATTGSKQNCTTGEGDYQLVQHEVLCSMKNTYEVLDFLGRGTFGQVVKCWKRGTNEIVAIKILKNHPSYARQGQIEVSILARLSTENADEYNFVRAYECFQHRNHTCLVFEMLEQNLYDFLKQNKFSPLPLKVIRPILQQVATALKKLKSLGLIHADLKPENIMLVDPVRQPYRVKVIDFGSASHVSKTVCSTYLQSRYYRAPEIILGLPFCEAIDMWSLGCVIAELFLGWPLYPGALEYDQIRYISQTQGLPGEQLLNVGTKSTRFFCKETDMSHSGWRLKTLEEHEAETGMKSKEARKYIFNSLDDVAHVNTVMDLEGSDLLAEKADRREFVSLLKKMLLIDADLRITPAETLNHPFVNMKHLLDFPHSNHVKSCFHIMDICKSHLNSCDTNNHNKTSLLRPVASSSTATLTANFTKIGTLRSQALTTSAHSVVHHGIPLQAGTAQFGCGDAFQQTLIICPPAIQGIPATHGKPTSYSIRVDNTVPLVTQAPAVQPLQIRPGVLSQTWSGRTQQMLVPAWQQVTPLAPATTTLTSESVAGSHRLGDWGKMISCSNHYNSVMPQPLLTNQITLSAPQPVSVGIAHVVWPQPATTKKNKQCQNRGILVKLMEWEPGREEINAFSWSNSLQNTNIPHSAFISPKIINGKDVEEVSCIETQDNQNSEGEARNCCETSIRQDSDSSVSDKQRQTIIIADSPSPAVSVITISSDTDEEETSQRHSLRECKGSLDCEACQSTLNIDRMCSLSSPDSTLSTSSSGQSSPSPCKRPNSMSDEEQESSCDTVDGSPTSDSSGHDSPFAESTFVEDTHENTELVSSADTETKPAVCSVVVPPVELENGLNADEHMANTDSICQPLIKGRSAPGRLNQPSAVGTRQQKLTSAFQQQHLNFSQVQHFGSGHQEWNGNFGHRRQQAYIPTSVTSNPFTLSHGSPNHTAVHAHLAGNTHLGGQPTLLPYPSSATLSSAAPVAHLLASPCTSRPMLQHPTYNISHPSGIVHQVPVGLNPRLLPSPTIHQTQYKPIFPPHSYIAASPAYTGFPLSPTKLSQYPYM
In short: as §1

TRK-C = biological target: T29, TRK-C (Homo sapiens, UniProt Q16288); conditions: read-out: Residual Activity (%)
T29 construct: purchased ProQinase
In short: as §1

PKC-gamma = biological target: T30, PKC-gamma (Homo sapiens, UniProt P05129); conditions: read-out: Residual Activity (%)
T30 construct: purchased ProQinase
In short: as §1

EPHA7 = biological target: T31, EPHA7 (Homo sapiens, UniProt Q15375); conditions: EPHA7, 1 µM; read-out: Residual Activity (%)
T31 construct: purchased ProQinase
In short: as §1

T1 sequence (P41743 whole entry): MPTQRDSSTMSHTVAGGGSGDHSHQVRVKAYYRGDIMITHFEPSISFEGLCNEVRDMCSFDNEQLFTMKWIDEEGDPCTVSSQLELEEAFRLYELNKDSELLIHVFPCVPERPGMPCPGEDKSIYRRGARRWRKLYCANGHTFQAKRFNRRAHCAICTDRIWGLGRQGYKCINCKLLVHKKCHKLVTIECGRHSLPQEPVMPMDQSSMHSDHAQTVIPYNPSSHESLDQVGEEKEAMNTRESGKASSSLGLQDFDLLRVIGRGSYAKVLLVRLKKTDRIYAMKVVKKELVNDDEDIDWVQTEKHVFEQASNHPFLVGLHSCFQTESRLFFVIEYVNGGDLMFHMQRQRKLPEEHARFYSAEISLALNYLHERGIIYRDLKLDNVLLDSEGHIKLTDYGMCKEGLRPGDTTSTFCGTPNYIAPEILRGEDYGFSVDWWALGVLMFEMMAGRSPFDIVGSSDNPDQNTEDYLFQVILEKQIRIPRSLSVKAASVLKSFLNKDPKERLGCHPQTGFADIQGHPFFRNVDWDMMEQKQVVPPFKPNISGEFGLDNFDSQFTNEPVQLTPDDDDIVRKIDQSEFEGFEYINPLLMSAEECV

## COc1ccc(-c2cc(C(=O)Nc3cc(-c4c(-c5ccc(F)cc5)noc4C(C)C)ccn3)n(CC3NCC(O)C3O)c2)cc1 (stereo not shown) [29d]
PKC-iota
  remaining activity at 1 µM: 88%
CSF1-R
  remaining activity at 1 µM: 108%
PAK3
  remaining activity at 1 µM: 81%
JAK1 aa583-1154 wt
  remaining activity at 1 µM: 104%
CLK3
  remaining activity at 1 µM: 92%
EPHA4
  remaining activity at 1 µM: 100%
EEF2K
  remaining activity at 1 µM: 99%
MATK
  remaining activity at 1 µM: 167%
RPS6KA2
  remaining activity at 1 µM: 93%
MET
  remaining activity at 1 µM: 89%
CK1-delta
  remaining activity at 1 µM: 1%
ACV-R2B
  remaining activity at 1 µM: 127%
EPHA3
  remaining activity at 1 µM: 118%
LRRK2
  remaining activity at 1 µM: 100%
TBK1
  remaining activity at 1 µM: 113%
PRK2
  remaining activity at 1 µM: 88%
CAMK2D
  remaining activity at 1 µM: 100%
ITK
  remaining activity at 1 µM: 114%
ERK2
  remaining activity at 1 µM: 104%
Aurora-C
  remaining activity at 1 µM: 97%
FES
  remaining activity at 1 µM: 120%
GRK4
  remaining activity at 1 µM: 111%
EPHB4
  remaining activity at 1 µM: 118%
PKC-zeta
  remaining activity at 1 µM: 123%
MEK1
  remaining activity at 1 µM: 90%
CLK2
  remaining activity at 1 µM: 116%
DCAMKL2
  remaining activity at 1 µM: 86%
HIPK3
  remaining activity at 1 µM: 109%
TRK-C
  remaining activity at 1 µM: 105%
PKC-gamma
  remaining activity at 1 µM: 112%
EPHA7
  remaining activity at 1 µM: 100%

Source: publication PMC6429214, “Design, Synthesis and Biological Evaluation of Isoxazole-Based CK1 Inhibitors Modified with Chiral Pyrrolidine Scaffolds” (Molecules, 2019)
